Key:
[1] = test system: rat model of low-fiber diet-induced constipation; assay: Rat model of low-fiber diet-induced constipation (Example 2)
Protocol: Compound 2 was weighed and was dissolved in distilled water at preparation concentrations of 3, 10 and 30 mg/mL as the free drug to prepare test compounds.
0.5% methylcellulose (0.5% MC) was used as a vehicle for preparation of lubiprostone. Lubiprostone was weighed and was suspended in 0.5% MC at preparation concentrations of 1, 3 and 10 mg/mL to prepare control substances.
Magnesium sulfate (MgSO4) (Wako pure chemical) was weighed and was dissolved in distilled water at a preparation concentrations of 200 mg/mL to prepare a positive control substance.
A soluble starch, sucrose and lactose monohydrate were weighed at a rate of 6:3:1 and were dissolved in distilled water which was approximately 80% of the amounts of preparation on heating, and then the mixture was added with distilled water to prepare 0.4 g/mL solution of mixed carbohydrate.
A low-fiber diet was prepared based on the literature (Kakino et al. BMC Complementary and Alternative Medicine 2010, 10: 68).
Rats were fed on the low-fiber diet for 1-2 weeks to induce constipation.
Compound 2 (3 mg/kg, 10 mg/kg or 30 mg/kg as free drug), lubiprostone (1 mg/kg, 3 mg/kg or 10 mg/kg), MgSO4 (2000 mg/kg) or a vehicle (distilled water: Control group 1, 0.5% MC: Control group 2) was administered orally at around 9 a.m. using a 1 mL glass syringe and a stomach tube. Then, 0.4 g/mL solution of mixed carbohydrate was administered orally at 2 mL/body to Control group 1 and the groups administered with Compound 2. Distilled water was administered to the normal feed group.
The sum of the fecal weights at the collection times was set as the fecal weight at 24 hours after the administration.
The statistical analysis was made by testing the uniformity of variance using Bartlett's method, and multiple comparison between Control group 1 and the group administered with Compound 2 or Control group 2 and the group administered with lubiprostone was made using Dunnett's method when variance was uniform respectively, and multiple comparison was made using Steel's method when variance was not uniform. In each case, significance level<5% was considered as significant difference.

healthy adult males = assay: Multiple-dose study in healthy adult males (Example 4); format: in vivo, human
Protocol: Compound 2 at a dose of 2, 5, 10 or 20 mg (free drug equivalent), a placebo, or miglitol at a dose of 50 mg was repetitively administered orally once daily just immediately before breakfast on administration Days 1 and 13, and 3 times daily just immediately before every meal on administration Days 3 to 12 to healthy adult males. For the administration of Compound 2, tablets containing 1, 5 or 10 mg in free drug equivalent were used. The test period was set between administration Day 1 and Day 15. Frequencies of bowel movements were checked during consultation by a doctor, and the adverse events (gastrointestinal disorders) were defined when an abnormal finding (diarrhea or loose stool) was seen based on the stool form and the finding. In this regard, the frequencies of bowel movements in Table 8 show the daily means during fifteen days (time/day).

[2] = test system: Loperamide-induced dog constipation model; assay: Loperamide-induced dog constipation model (Example 1); format: in vivo; conditions: for Dry fecal weight within 24 hours after the administration / Wet fecal weight within 24 hours after the administration / Frequency of bowel movement within 24 hours after the administration: mean of 10 dogs; for Dry fecal weight within 24 hours after the administration: Control group 1.0, Normal group 47.1; for Wet fecal weight within 24 hours after the administration: Control group 2.8, Normal group 136.2; for Frequency of bowel movement within 24 hours after the administration: observation at 17, 21, 24 hours, Control group 0.2, Normal group 2.1
Protocol: Lubiprostone (TLC Pharma Chem) was weighed and was suspended in 0.5% methylcellulose at preparation concentrations of 0.05 and 0.35 mg/mL to prepare control substances.
Loperamide hydrochloride (Wako pure chemical) was weighed at 0.3, 0.5, 1.0, 2.0, 4.0 or 8.0 mg/kg for each animal and was filled into a gelatin capsule.
Loperamide hydrochloride which was filled into a gelatin capsule was orally administered to dogs (beagle, male, 13-14 months old, 10 dogs, Kitayama-labesu). The dosage was increased from 0.3 mg/kg, and was set at 2.0, 4.0 or 8.0 mg/kg based on the bowel movement condition of each dog.
Tests were performed as a full cross-over trial. More than 5-day washout period was provided between each test, and a recovery of stool form was identified, and then the next test was performed.
A gelatin capsule which was filled with loperamide hydrochloride was administered orally at around 9 a.m. on the first and second days in each test.
The stool form of feces was scored in seven categories based on Bristol Stool Form Scale. The collected feces were dried fully, and then the feces were weighed, and it was set as the dry fecal weight.

For `O=S(=O)([O-])[O-].[Mg+2]` [MgSO4, Magnesium sulfate], the Watery stool ([1]; 2000 mg/kg) was “watery stool was reported”, the “Fecal weight, effect of positive control” value ([1]; 2000 mg/kg oral) was “increase of the fecal weight was also shown” and the “Fecal weight within 24 hours after the administration” value ([1]; 2000 mg/kg oral, positive control, n=4, Control group 1 0.53) was 3.70 g.

`OCCN1C[C@H](O)[C@@H](O)[C@H](O)[C@H]1CO` [Miglitol, miglitol, reference compound] was tested, and the “Daily frequency of bowel movement after the administration, Mean” value (healthy adult males; 50 mg, once daily Days 1 and 13, 3 times daily Days 3 to 12, daily mean during fifteen days, 8 subjects, Placebo 1.0) was 1.0 time/day, the “Number of subject with gastrointestinal disorders: Abdominal pain” value (healthy adult males; multiple dose 50 mg, of 8 subjects, Placebo 0) was 0 and the “Number of subject with gastrointestinal disorders: Diarrhea” value (healthy adult males; multiple dose 50 mg, of 8 subjects, Placebo 3) was 2.

In the case of `CCCCC(F)(F)[C@@]1(O)CC[C@H]2[C@@H](CC(=O)[C@@H]2CCCCCCC(=O)O)O1` [lubiprostone, Lubiprostone, reference compound], the “Fecal weight within 24 hours after the administration” value ([1]; 1 mg/kg oral in 0.5% MC, n=5, Control group 2 0.58) is reported as 0.60 g, the “Fecal weight within 24 hours after the administration” value ([1]; 3 mg/kg oral in 0.5% MC, n=5, Control group 2 0.58) is reported as 0.95 g and the “Fecal weight within 24 hours after the administration” value ([1]; 10 mg/kg oral in 0.5% MC, n=5, Control group 2 0.58) is reported as 1.25 g. The “Fecal weight during 24 hours versus Control group” value ([1]; 10 mg/kg, versus Control group 2, significance level <5%) was “significantly higher than in each Control group”, the “Dose dependence of fecal weight during 24 hours after the administration” value ([1]; oral) was “dose-dependently increased” and the “Wet fecal weight, dry weight and frequency of bowel movements versus Control group” value ([2]; 0.1 mg/kg or more, significance level <5%) was “significantly higher than in Control group”. The “Dry fecal weight within 24 hours after the administration” value ([2]; 0.1 mg/kg oral) was 8.3 g, the “Wet fecal weight within 24 hours after the administration” value ([2]; 0.1 mg/kg oral) was 18.7 g and the “Frequency of bowel movement within 24 hours after the administration” value ([2]; 0.1 mg/kg oral) was 0.9 time. The “Dry fecal weight within 24 hours after the administration” value ([2]; 0.7 mg/kg oral) was 21.5 g, the “Wet fecal weight within 24 hours after the administration” value ([2]; 0.7 mg/kg oral) was 55.4 g and the “Frequency of bowel movement within 24 hours after the administration” value ([2]; 0.7 mg/kg oral) was 1.0 time. The “Increases of loose stool and diarrhea” value ([2]; all doses of this test) was “not observed” and the “Dose dependence of wet fecal weight, dry weight and frequency of bowel movements” value ([2]; within 24 hours after oral administration) was “dose-dependently increased”.
